In patent US7785879B1, “Pregnane X receptor compositions, crystals and uses thereof” (Schering Corporation, priority 2005, dated 2010):

Legend:
PXR-LBD-L10-SRC = target: T1, PXR-LBD-L10-SRC (Homo sapiens, UniProt O75469); experiment: Temperature-dependent circular dichroism, stabilization of PXR-LBD-L10-SRC; settings: 25 uM compound
T1 sequence (O75469 with tags, fused parts or gaps): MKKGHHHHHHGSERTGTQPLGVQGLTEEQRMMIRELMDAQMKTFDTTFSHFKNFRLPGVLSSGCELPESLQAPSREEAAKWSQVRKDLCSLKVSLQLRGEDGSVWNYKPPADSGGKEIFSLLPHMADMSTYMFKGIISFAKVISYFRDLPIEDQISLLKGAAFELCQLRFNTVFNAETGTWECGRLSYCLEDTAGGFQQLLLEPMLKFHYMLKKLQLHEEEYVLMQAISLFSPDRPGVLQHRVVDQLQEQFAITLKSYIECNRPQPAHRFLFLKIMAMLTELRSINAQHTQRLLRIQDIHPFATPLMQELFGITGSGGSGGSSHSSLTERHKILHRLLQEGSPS
Protocol: (§1) The CD is a function of wavelength.
(§2) PXR-LBD-L10-SRC was expressed and purified essentially as set forth above. […] Stabilization of PXR-LBD-L10-SRC in the presence of various substances was measured by temperature-dependent circular dichroism. PXR-LBD-L10-SRC was assayed under the following conditions:
(§3) Buffer: 25 mM Hepes, pH 7.9, 150 mM NaCl, 5% glycerol, 10 mM BME,
(§4) heating ramp at 2° C./min
(§5) temperature range: 30-80° C.

PXR = target: T2, PXR (Homo sapiens, UniProt O75469); settings: Table 2; read-out: reported Kd; cited from earlier work
T2 sequence (O75469 1-434): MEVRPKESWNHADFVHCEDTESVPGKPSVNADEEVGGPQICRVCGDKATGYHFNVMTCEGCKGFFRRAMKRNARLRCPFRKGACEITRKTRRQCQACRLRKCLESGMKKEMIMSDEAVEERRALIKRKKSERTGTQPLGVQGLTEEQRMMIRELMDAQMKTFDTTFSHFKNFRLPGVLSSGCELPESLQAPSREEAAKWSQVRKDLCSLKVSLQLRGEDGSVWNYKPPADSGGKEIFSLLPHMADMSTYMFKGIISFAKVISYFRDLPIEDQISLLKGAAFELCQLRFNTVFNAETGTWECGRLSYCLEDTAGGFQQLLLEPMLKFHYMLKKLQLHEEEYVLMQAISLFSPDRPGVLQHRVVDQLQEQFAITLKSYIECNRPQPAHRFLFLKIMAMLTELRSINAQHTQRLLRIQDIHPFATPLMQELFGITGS

[1] = target: T3, human PXR-LBD-L10-SRC (SEQ ID NO: 24) (Homo sapiens, UniProt O75469); experiment: Ligand binding assay (radioligand, filter plate); settings: conclusion from the radioligand binding tables
T3 sequence (O75469 with tags, fused parts or gaps): T1 sequence (O75469 with tags, fused parts or gaps)
Protocol: Chemilluminescence can be detected, for example, in a scintillation counter (Packard Top-counter). Specifically, the bound complex can be contacted with scintillant and then analyzed for the occurrence of scintillation.
After one hour of incubation at room temperature, the mixture was transferred to an imobilon multiScreen filter plate (Millipore). The plate was washed five times with PBS and dried under vacuum. The dried plate was added Opti-Fluor Scitillation cocktail before counting in a Parkard Top-counter.

PXR (PXR-LBD-L10-SRC) = target: T4, PXR (PXR-LBD-L10-SRC) (Homo sapiens, UniProt O75469); experiment: Temperature-dependent circular dichroism, stabilization of PXR-LBD-L10-SRC; settings: human, pH 7.9
T4 sequence (O75469 with tags, fused parts or gaps): T1 sequence (O75469 with tags, fused parts or gaps)
Protocol: as §1, §2, §3, §4, §5

Row | SMILES | Tm (PXR-LBD-L10-SRC; 2.5 μM protein, 225 nm, apo enzyme Tm 52.9 ± 0.05) | ΔTm (PXR-LBD-L10-SRC; vs PXR-LBD-L10-SRC apo enzyme) | Kd (PXR-LBD-L10-SRC; from CD thermal denaturation) | Kd (PXR) | binding activity of PXR [1] | ΔTm at 25 µM (PXR (PXR-LBD-L10-SRC))
1 | Clc1ccccc1C(c1ccccc1)(c1ccccc1)n1ccnc1 [Clotrimazole] | 58.5 C | 5.6 C | 0.2 µM | 0.3 µM | significant | –
2 | O=C1C(CC[S+]([O-])c2ccccc2)C(=O)N(c2ccccc2)N1c1ccccc1 (stereo not drawn) [sulfopyrole] | – | – | – | – | – | 2.3 °C
